According to patent US10647680B2, “Urea compound, preparation method therefor and medical use thereof” (Ancureall Pharmaceutical (Shanghai) Co., Ltd., priority 2016, dated 2020):

Legend:
[1] = system: MOLM-13 (FLT3 ITD+/− mutant type); assay: In vitro growth inhibition (GI50), MOLM-13; format: cell-based, human; settings: Homo sapiens, MOLM-13; Cell lines of leukemia; read-out: GI 50 MOLM-13 FLT3 (ITD+/−)
Description: (§1) 1. Cell Lines and Cell Cultures
(§2) Tumor cell line is an effective cell model for studying the inhibition of tumor cell growth or proliferation in vitro. In the present invention, a representative tumor cell line was selected to determine the cell growth inhibition activity of the present compound. All cell lines used were from ATCC, DSMZ, and the Cell Bank of the Chinese Academy of Sciences. Cell culture conditions and methods were in accordance with the requirements of each cell line. Cells were subcultured in vitro for no more than 3 passages each time, and as required, single-clone purification and identification of cell lines could be carried out.
(§3) The cell culture media used were RPMI1640 (Gibco), MEM (Gibco), McCOY'S5A (Gibco), and IMDM (Gibco). The complete medium was prepared by supplement with 5˜20% fetal calf serum (Gibco), 1% double-antibiotics (10000 units/mL penicillin and 10000 units/mL), 2 mM glutamine or 1 mM sodium pyruvate, respectively.
(§4) The human acute […] monomonocyte leukemia cell line MV4-11 (FLT3 ITD+/+ mutant type, ATCC) was cultured in a complete medium comprising 1×IMDM and 10% FBS. Human acute myeloid leukemia cell line MOLM-13 (FLT3 ITD+/− mutant type, DSMZ), human acute lymphoblastic leukemia cell line RS4; 11 (FLT3 wild type, ATCC), human chronic granulocytic leukemia cell line K562 (FLT3 negative expression, positive expression of BCR-ABL fusion protein, ATCC), human promyelocytic leukemia cell line HL-60 (FLT3 wild type, ATCC), human B lymphoblastic leukemia cell line RAMOS (positive expression of Brutons tyrosine protein kinase, ATCC), human acute myeloid leukemia cell line Kasumi-1 (c-Kit N822K mutant type, ATCC), human acute monocytic leukemia cell line U937 (FLT3 wild-type, ATCC), human acute myeloid leukemia cell line OCI-AML3 (NPMc+ mutant type, ATCC), human acute myeloid leukemia cell line KG-1 (expressing FGFR1OP2-FGFR1 fusion protein, ATCC) were cultured in a complete medium comprising 1×RPMI1640 and 10% FBS, respectively.
(§5) The suspension cells were collected by centrifugation. The supernatant was discarded and the cell pellet was resuspended and counted. Different cell concentrations (5˜10×10^4 cells/mL) were prepared according to the growth cycle of each cell line and then seeded on a 96-well plate (Corning), 100 μL/well. The cells were incubated overnight at 37° C., 5% CO2. The compounds were added to the cells on the second day with 2 wells in parallel. The final concentration of organic solvent shall not exceed 1%. The cells were continually incubated for 3 to 5 days, and then subjected to MTT assay.
(§6) The compound was stored in a concentration of 10 mM at −20° C. and diluted to 2- or 10-fold series prior to use.
(§7) Dojindo CCK8 reagent kit was used as MTT assay. […] FC meter was used as microplate reader.
(§8) For adherent cells, culture medium was removed and immediately replaced with the fresh prepared medium which contains 10% CCK8 reagent (100 μL/well). For the suspension cells, CCK8 was directly added to 10% of the final concentration. The cells were continually incubated for 1˜4 h. […] The experiment was independently repeated 1˜3 times, and subject to biological statistical analysis. 4. Experimental Results
(§9) The initial concentration of the compound was 5,000 nM, then it was serially diluted by 2-fold or 10-fold to 0.01 nM. The GI50 value of each test compound was calculated according to the GI50 assay and calculation method. The experiments were repeated 1 to 3 times, and data were subjected to biological statistical analysis.

[2] = system: K562 (FLT3 negative expression, positive expression of BCR-ABL fusion protein); assay: In vitro growth inhibition (GI50), K562; format: cell-based; settings: Homo sapiens, Cell lines of leukemia, read-out: GI 50 K562 BCR-ABL
Description: as §1, §2, §3, §4, §5, §6, §7, §8, §9

[3] = system: RAMOS (positive expression of Brutons tyrosine protein kinase); assay: In vitro growth inhibition (GI50), RAMOS; format: cell-based; settings: Homo sapiens, Cell lines of leukemia, read-out: GI 50 Ramos BTK
Description: as §1, §2, §3, §4, §5, §6, §7, §8, §9

[4] = system: OCI-AML3 (NPMc+ mutant type); assay: In vitro growth inhibition (GI50), OCI-AML3; format: cell-based; settings: Homo sapiens, OCI-AML-3; Cell lines of leukemia; read-out: GI 50 OCI- AML3 NPMc+
Description: as §1, §2, §3, §4, §5, §6, §7, §8, §9

[5] = system: RS4; 11 (FLT3 wild type); assay: In vitro growth inhibition (GI50), RS4; 11; format: cell-based, human; settings: Homo sapiens, RS4-11; Cell lines of leukemia; read-out: GI 50 RS4: 11 FLT3 (WT)
Description: as §1, §2, §3, §4, §5, §6, §7, §8, §9

[6] = system: U937 (FLT3 wild-type); assay: In vitro growth inhibition (GI50), U937; format: cell-based; settings: Homo sapiens, U-937; Cell lines of leukemia; read-out: GI 50 U937 FLT 3(WT)
Description: as §1, §2, §3, §4, §5, §6, §7, §8, §9

[7] = system: MV4-11 (FLT3 ITD+/+ mutant type); assay: In vitro growth inhibition (GI50), MV4-11; format: cell-based, human; settings: Homo sapiens, MV4-11; Cell lines of leukemia; read-out: GI 50 MV4-11 FLT3 (ITD +/+)
Description: as §1, §2, §3, §4, §5, §6, §7, §8, §9

[8] = system: Kasumi-1 (c-Kit N822K mutant type); assay: In vitro growth inhibition (GI50), Kasumi-1; format: cell-based; settings: Homo sapiens, Cell lines of leukemia, read-out: GI 50 Kasumi-1 Kit (N822K)
Description: as §1, §2, §3, §4
as §5, with “Adherent cells were digested with 0.25% pancreatin-EDTA (Gibco). The suspension” for “The suspension”
(§10) The compound of the present invention and the control compound were dissolved in DMSO (Sigma) respectively, with the purity of more than 98%. The compound was stored in a concentration of 10 mM at −20° C. and diluted to 2- or 10-fold series prior to use.
(§11) Dojindo CCK8 reagent kit was used as MTT assay. THERMO […] FC meter was used as microplate reader.
(§12) For adherent cells, culture medium was removed and immediately replaced with the fresh prepared medium which contains 10% CCK8 reagent (100 μL/well). For the suspension cells, CCK8 was directly added to 10% of the final concentration. The cells were continually incubated for 1˜4 h. When a dark yellow color could be observed in the solvent control wells, the absorbance value at OD450 nm was measured and the cell growth rate was calculated according to the following formula: Cell Growth Rate (%)=100*(T−T0)/(C−T0) T=optical density of drug treatment cell well—optical density of blank control well; T0=optical density of cell well before drug treatment—optical density of blank control well; C=optical density of cell well of solvent control group—optical density of blank control well. The concentration value of 50% inhibition of cell growth (GI50) was calculated according to the drug concentration and cell growth rate curve. […]

[9] = system: HL-60 (FLT3 wild type); assay: In vitro growth inhibition (GI50), HL-60; format: cell-based; settings: Homo sapiens, Cell lines of leukemia, read-out: GI 50 HL60 FLT3 (WT)
Description: as §1, §2, §3, §4
as §5, with “Adherent cells were digested with 0.25% pancreatin-EDTA (Gibco). The suspension” for “The suspension”
as §10, §11, §12

[10] = system: KG-1 (expressing FGFR1OP2-FGFR1 fusion protein); assay: In vitro growth inhibition (GI50), KG-1; format: cell-based; settings: Homo sapiens; Cell lines of leukemia; read-out: GI 50 KG-1 FGFR1OP 2-FGFR1
Description: as §1, §2, §3, §4, §5, §6, §7, §8, §9

| GI50 [1] [µM] | GI50 [2] [µM] | GI50 [3] [µM] | GI50 [4] [µM] | GI50 [5] [µM] | GI50 [6] [µM] | GI50 [7] [µM] | GI50 [9] [µM] | SMILES | GI50 [8] [µM] | GI50 [10] [µM] |
| --- | --- | --- | --- | --- | --- | --- | --- | --- | --- | --- |
| 0.0001 to 0.001 | > 1 | > 1 | > 1 | > 1 | > 1 | 0.0001 to 0.001 | > 1 | Cn1nc(C(C)(C)C)cc1NC(=O)Nc1ccc(-n2cnc3ccccc32)cc1 [Compound 100, 1-(4-benzimidazol-1-yl-phenyl)-3-(5-tert-butyl-2-methyl-2H-pyrazol-3-yl)-urea] | > 1 | > 1 |
| 0.01 to 0.1 | > 1 | > 1 | > 1 | > 1 | > 1 | 0.01 to 0.1 | > 1 | O=C(Nc1ccc(-n2cnc3ccccc32)cc1)Nc1cc(C2CC2)n[nH]1 [Compound 66, 1-(4-benzimidazol-1-yl-phenyl)-3-(5-cyclopropyl-2H-pyrazol-3-yl)-urea] | > 1 | > 1 |
| 0.01 to 0.1 | > 1 | > 1 | > 1 | > 1 | > 1 | 0.01 to 0.1 | > 1 | CC(C)(C)c1cc(NC(=O)Nc2ccc(-n3cnc4ccccc43)cc2Cl)no1 [Compound 41, 1-(4-benzimidazol-1-yl-2-chloro-phenyl)-3-(5-tert-butyl-isoxazol-3-yl)-urea] | > 1 | > 1 |
| 0.0001 to 0.001 | > 1 | > 1 | > 1 | > 1 | > 1 | 0.0001 to 0.001 | > 1 | CC(C)(C)c1cc(NC(=O)Nc2ccc(-n3cnc4cc(OCCN5CCCCCC5)ccc43)cc2)[nH]n1 [Compound 91, 1-{4-[5-(2-azepan-1-yl-ethoxy)-benzimidazol-1-yl]-phenyl}-3-(5-tert-butyl-2H-pyrazol-3-yl)-urea] | > 1 | > 1 |

The remaining lines, values behind:

| SMILES | GI50 [1] [µM] | GI50 [2] [µM] | GI50 [3] [µM] | GI50 [4] [µM] | GI50 [5] [µM] | GI50 [6] [µM] | GI50 [7] [µM] | GI50 [9] [µM] | GI50 [8] [µM] | GI50 [10] [µM] |
| --- | --- | --- | --- | --- | --- | --- | --- | --- | --- | --- |
| Cc1cc(NC(=O)Nc2ccc(-n3cnc4ccccc43)cc2)no1 [Compound 2, 1-(4-benzimidazol-1-yl-phenyl)-3-(5-methyl-isoxazol-3-yl)-urea] | > 1 | > 1 | > 1 | > 1 | > 1 | > 1 | > 1 | > 1 | > 1 | > 1 |
| COc1cc2ncn(-c3ccc(NC(=O)Nc4cc(C(C)(C)C)on4)cc3)c2cc1OC [Compound 31, 1-(5-tert-butyl-isoxazol-3-yl)-3-[4-(5,6-dimethoxyl-benzimidazol-1-yl)-phenyl]-urea] | 0.0001 to 0.001 | 0.1 to 1 | 0.1 to 1 | > 1 | 0.1 to 1 | > 1 | 0.0001 to 0.001 | > 1 | 0.1 to 1 | > 1 |
| CCCCCCOc1ccc2c(c1)ncn2-c1ccc(NC(=O)Nc2cc(C(C)(C)C)on2)cc1 [Compound 7, 1-(5-tert-butyl-isoxazol-3-yl)-3-[4-(5-hexyloxyl-benzimidazol-1-yl)-phenyl]-urea] | 0.0001 to 0.001 | > 1 | > 1 | > 1 | > 1 | > 1 | 0.0001 to 0.001 | > 1 | > 1 | > 1 |
| Cc1cc(F)cc2ncn(-c3ccc(NC(=O)Nc4cc(C(C)(C)C)on4)cc3)c12 [Compound 33, 1-(5-tert-butyl-isoxazol-3-yl)-3-[4-(5-fluoro-7-methyl-benzimidazol-1-yl)-phenyl]-urea] | 0.001 to 0.01 | > 1 | > 1 | > 1 | > 1 | > 1 | 0.001 to 0.01 | 0.1 to 1 | > 1 | > 1 |
| CC(C)(C)c1cc(NC(=O)Nc2ccc(-n3cnc4cc(F)ccc43)cc2)no1 [Compound 22, 1-(5-tert-butyl-isoxazol-3-yl)-3-[4-(5-fluoro-benzimidazol-1-yl)-phenyl]-urea] | 0.0001 to 0.001 | > 1 | > 1 | > 1 | > 1 | > 1 | 0.0001 to 0.001 | > 1 | > 1 | > 1 |
| CC(C)(C)c1cc(NC(=O)Nc2ccc(-n3c(Cl)nc4ccccc43)cc2)no1 [Compound 36, 1-(5-tert-butyl-isoxazol-3-yl)-3-[4-(2-chlorobenzimidazol-1-yl)-phenyl]-urea] | 0.1 to 1 | > 1 | > 1 | > 1 | > 1 | > 1 | 0.1 to 1 | > 1 | > 1 | > 1 |
| CC(C)(C)c1cc(NC(=O)Nc2ccc(-n3cnc4cc(OCC5CCCO5)ccc43)cc2)no1 (centres unmarked) [Compound 10, 1-(5-tert-butyl-isoxazol-3-yl)-3-{4-[5-(tetrahydrofuran-2-ylmethoxy)-benzimidazol-1-yl]-phenyl}-urea] | 0.0001 to 0.001 | > 1 | > 1 | > 1 | > 1 | > 1 | 0.0001 to 0.001 | > 1 | > 1 | > 1 |
